Assay [1] deals with Jurkat human lymphocytes. Description: Suppression of TNF-α-induced uropod formation in lymphocytes. It counts as cell-based. Conditions: FIG. 3 legend; TNF-α 10 ng/mL. The method, then: (§1) FIG. 3. Suppression of TNF-α and PHA-induced human lymphocyte activation by Apoptozole 1. (A) Jurkat human lymphocytes are treated with various concentrations of Apoptozole 1 for 1 h and then are activated by incubation with 10 ng/mL of TNF-α for 1 h to induce uropod formation. The formed uropod is determined by microscopic analysis of groups of cells. (B) Lymphocytes treated with TNF-α (10 ng/mL) for 48 h are incubated with various concentrations of Apoptozole 1 for 24 h. Cell number is measured by CyQuant kit. (C) Jurkat human lymphocytes are incubated with various concentrations of Apoptozole 1 for 1 h and then with 10 μg/mL PHA for 1 h to induce cell aggregation. Cell aggregates are counted in 40× fields of view determined randomly.
(§2) Lymphocyte activation leads to the formation of a uropod in the rear pole during cell polarization and cell proliferation. Jurkat lymphocytes are incubated with various concentrations of Apoptozoles for 1 h and the treated cells are then activated by treatment with TNF-α for 1 h. Apoptozoles reduce the uropod formation induced by TNF-α by 45% in comparison with cells treated only with TNF-α. […]
Jurkat human lymphocytes are seeded in 6-well plates at a density of 10^3 cells/mL in 5% FBS in order to reduce the propensity for spontaneous uropod formation. […] The formed uropod is determined by microscopic analysis of groups of cells.

For assay [2], the system named is Jurkat human lymphocytes. Kind of assay: Suppression of PHA-induced homotypic aggregation in lymphocytes. Type of assay: cell-based. Conditions: FIG. 3 legend; PHA 10 μg/mL. The method, then:
as §1, §2
For homotypic aggregation studies, lymphocytes are seeded in 6-well plates at a density of 2×10^4 cells/mL and treated with various concentrations (0-100 nM) of Az for 1 h. […] Cell aggregates are counted in 40× fields of view determined randomly.

The subject of assay [3] is ΔF508-CFTR in CFPAC-1 cells. Kind of assay: Detection of ΔF508-CFTR expression on the cell membrane (immunostaining without permeabilization). Type of assay: cell-based, human. Particulars: 100 nM, 24 h. Here is the method:
FIG. 4. Intracellular trafficking of misfolded ΔF508-CFTR by Apoptozole 1. (A) Capan-1 cells expressing normal CFTR display intense fluorescence in a characteristic ring structure that is indicative of cell membrane labeling. (B) CFPAC-1 cells expressing ΔF508-CFTR show little or no fluorescent signal at the cell surface, due to degradation ΔF508-CFTR by interacting with Hsc70 in the proteosome pathway. […] Immunostaining for CFTR is carried out using standard methods without cell permeabilization to allow CFTR detection on the cell surface.
The other embodiment of the present invention provides translocation methods of mutant CFTR (cystic fibrosis transmembrane conductance regulator) to treat cystic fibrosis. Hsc70 assists the degradation of misfolded proteins in the ER (Nature 1996, 381, 571-579 Cell 1998, 92, 351-366 Science 1999, 286, 1888-1893). Cystic fibrosis is a disease caused by removal of mutant CFTR in the ER. The most common mutation of CFTR is the deletion of phenylalanine-508 in CFRT (ΔF508-CFRT). […] When Capan-1 cells are immunostained with anti-CFTR antibody, intense fluorescence is observed in the cell membrane. […]
Capan-1 and CFPAC-1 cells are grown on Permanox slides (Fisher Scientific) for 24 h and treated with 1 mM 4-PBA and 100 nM Az for 24 h. […] The slides were analyzed using a fluorescence microscope (Nikon Eclipse TE2000).

SMILES strings stand for the structures.

Regarding `COc1ccc(-c2nc(-c3cc(C(F)(F)F)cc(C(F)(F)F)c3)n(Cc3ccc(C(N)=O)cc3)c2-c2ccc(OC)cc2)cc1` [Apoptozole 1, 4-2-[3,5-bis(trifluoromethyl)phenyl]-4,5-bis(4-methoxphenyl)imidazol-1-yl-methyl-benzamide], the “TNF-α-induced human lymphocyte activation” value in assay [1] is reported as “Suppression”. Besides, in assay [2], the “PHA-induced human lymphocyte activation” value is “Suppression”. Moreover, the “expression of ΔF508-CFTR on the cell membrane” value in assay [3] is given as “inhibits Hsc70-mediated degradation of the ΔF508-CFTR”.
